Measurements: article PMC9532951, “Identification and characterization of a novel SNAT2 (SLC38A2) inhibitor reveals synergy with glucose transport inhibition in cancer cells” (Frontiers in Pharmacology, 2022)
“And” between values parts separate entries of the source, which are not always exact repeats. Identical values can stand only once.

Key:
Format in all cases: cell-based, human
[1] = test system: MDA-MB-231 cells; test: Growth assay (IncuCyte confluence), MDA-MB-231; parameters: key to Growth (Figure 6A) / cell confluence (Figure 6F): % confluence; conditions: for Growth (Figure 6A): MDA-MB-231
Method: (§1) Cells were seeded on 96-well flat bottom plates at approximately 3000 cells/well and incubated in growth medium (DMEM/F12 supplemented with 10% FBS, 2 mM glutamine) for 24 h. The next day, the growth medium was aspirated and exchanged with 300 μL/well of growth medium containing compounds at the indicated concentration. For live cell analysis, plates were placed in the IncuCyte system (Essen Bioscience), which was housed in a cell incubator (37°C, humidified atmosphere composed of 95% air and 5% CO2) and confluence measured at 6-h intervals or at the assay endpoint when untreated control cells reached a confluency >90%. Antibiotics (10 U/mL penicillin and 10 μg/ml streptomycin) were included in the treatment solutions.
(§2) Growth curves were generated using the Gompertz function of OriginPro software: y=ae^−e^(−k(x−xc))
(§3) Where a is the maximum confluence or upper asymptote, k is the growth rate coefficient, xc is the time point at which 50% confluence is reached (inflection point) and e is Euler’s number. Cell growth data are shown as % confluence.
Synergism between drug combinations was quantified using ZIP synergy scoring as calculated by SynergyFinder ([Yadav et al., 2015]).

[2] = test system: HCC1806 cells; test: Assay of glycolytic activity (extracellular lactate); conditions: 57E 20 μM
Method: Glycolytic activity was measured by detecting extracellular lactate levels over a 48-h time course. HCC1806 and HPAFII cells were seeded on a 24-well plate at approximately 500,000 and 700,000 cells/well, respectively, and incubated in growth medium overnight. The following day, the growth medium was aspirated and each well was washed once with growth medium and 1.3 ml of the treatment solution was added to begin the time-course. In addition to sampling the medium at the start of the experiment, 50 μL was collected from each well at the following time points: 9, 24 and 48 h. Samples were stored at −20°C until further use. Lactate was detected by an enzymatic assay, which consisted of combining in microcentrifuge tubes: 5 μl of sample, 45 μl of water; 25 μl of 40 mM NAD^+; 421 μl of buffer (1M glycine, 600 mM hydrazine sulfate, 5.6 mM EDTA; adjusted to pH 9.5 with sodium hydroxide); and 4 μL of L-lactate dehydrogenase solved at 300U/mL (3.33 mg/ml). The tubes were briefly vortexed and incubated for 15 min before transferring 200 μL of the mixture to a 96-well plate. The calibration curve spanned final concentrations from 5 to 500 μM. Absorbance was measured at 340 nm to detect NADH. Lactate production was normalised to total cellular protein per well as measured by the Bradford assay.

[3] = test system: SKOV3 cells; test: [14C]alanine uptake in non-depleted SKOV3 cells; conditions: amino acid replete SKOV3 cells
Method: Functional characterisation of plasma membrane transporters in human cancer cells was determined at 37°C using an array of radiolabelled amino acid substrates. Modified Hanks HEPES-buffered salts solution (mHBSS; 137 mM NaCl; 5.4 mM KCl; 2.7 mM K2HPO4; 1 mM CaCl2; 0.5 mM MgCl2; 0.44 mM KH2PO4; 0.4 mM MgSO4; 5 mM D-glucose; 5 mM HEPES; pH 7.4) was used to wash and incubate cells where sodium dependent transport was measured, while N-methyl-D-glucamine (NMDG) and potassium salts substituted sodium in NMDG mHBSS to measure sodium independent uptake. For the assay, cells were seeded in 35 mm dishes and, once confluent, were washed thrice with warm mHBSS solution and incubated with mHBSS containing an 100 µM amino acid at a final specific activity of ≥2000 cpm/nmol (U-[^14C]amino acids were from PerkinElmer). After 6 min, cells were washed thrice with ice-cold mHBSS, lysed with 500 µl of 0.1 M HCl, detached with a cell scraper and triturated. A 400 µl aliquot was used for scintillation counting, while the remainder was saved for protein mass quantification by Bradford assay. Transport rates were normalised to the protein content of the culture dish.

[4] = test system: HCC1806 cells; test: Growth assay (IncuCyte confluence), HCC1806; conditions: HCC1806, growth medium
Method: as §1, §2, §3

[5] = test system: SNAT1/2; test: FMP assay: depolarisation by amino acid substrates in amino acid depleted HCC1806 cells
Method: The FLIPR Membrane Potential Blue Explorer Kit (Molecular Devices) was used to characterise inhibitors and to optimise a high-throughput compound screen. Cells were seeded at approximately 60,000 cells/well on a 96-well plate and allowed to attach and grow overnight in a cell incubator. […] Cells were then washed once with mHBSS and incubated with 50 µl of the mHBSS-resuspended FMP assay dye and 50 µl of mHBSS (with or without inhibitors) and incubated at room temperature for 30 min. The plate was then placed in an EnSpire Multimode plate reader (PerkinElmer) and four sequential measurements of fluorescence were recorded as a baseline reference. Immediately after the baseline measurements were taken, 25 µl of 5 mM glutamine dissolved in mHBSS was injected into each well and the plate was shaken orbitally for 5 s before a series of consecutive fluorescence measurements were taken. The excitation wavelength was set to 530 nm and the emission was detected at 565 nm. […] After the assay was complete, the liquid content of the plate was carefully removed, and the cell monolayer inspected to ensure it remained intact throughout the course of the assay.

`Cc1ccc(S(=O)(=O)N(C)c2ccsc2C(=O)NCc2ccccc2C(F)(F)F)cc1` [Compound 57_E, 3-(N-methyl (4-methylphenyl)sulfonamido)-N-(2-trifluoromethylbenzyl)thiophene-2-carboxamide] was tested, and the tolerated concentration ([1]; MDA-MB-231, growth medium) was “up to 30 μM”, the “Growth (Figure 6A)” value ([1]; concentration 1) was 82.35 and 90.35 and 97.85 and the “Growth (Figure 6A)” value ([1]; concentration 3) was 76.3 and 97.1 and 98.3. For the same compound, the “Growth (Figure 6A)” value ([1]; concentration 10) was 70.5 and 94.85 and 92.9, the “Growth (Figure 6A)” value ([1]; concentration 30) was 68.4 and 70.75 and 88.35 and the “Growth (Figure 6A)” value ([1]; concentration 100) was 57.95 and 91.15 and 66.7. The lactate production [2] was “increased”, the “inhibition of [14C]alanine uptake” value [3] was “did not inhibit any transporter in this cell line” and the tolerated concentration [4] was “up to 30 μM”.
`NC(=O)CC[C@H](N)C(=O)O` [Glutamine, glutamine] was tested, and the “FMP response as substrate” value ([5]; 1 mM) was “strongest response”, the Km ([5]; FMP signal plateau vs glutamine concentration, HCC1806 AA- (24h)) was 120 ± 10 µM and the FMP fluorescence reading ([5]; glutamine 0.01mM, t=60 s) was 68858 and 69253 and 69708. For the same compound, the FMP fluorescence reading ([5]; glutamine 0.01mM, t=75 s) was 69325 and 69681 and 70188, the FMP fluorescence reading ([5]; glutamine 0.01mM, t=90 s) was 69269 and 70070 and 70405 and the FMP fluorescence reading ([5]; glutamine 0.01mM, t=105 s) was 69763 and 69788 and 70466. For the same compound, the FMP fluorescence reading ([5]; glutamine 0.03mM (c24-c26), t=60 s) was 77460 and 80576 and 83628, the FMP fluorescence reading ([5]; glutamine 0.03mM (c24-c26), t=75 s) was 77730 and 80978 and 84391 and the FMP fluorescence reading ([5]; glutamine 0.03mM (c24-c26), t=90 s) was 78184 and 81512 and 84232. For the same compound, the FMP fluorescence reading ([5]; glutamine 0.03mM (c24-c26), t=105 s) was 78227 and 82096 and 85186, the FMP fluorescence reading ([5]; glutamine 0.03mM (last group, c32-c34), t=60 s) was 64072 and 69800 and 70295 and the FMP fluorescence reading ([5]; glutamine 0.03mM (last group, c32-c34), t=75 s) was 63883 and 70289 and 71073. The FMP fluorescence reading ([5]; glutamine 0.03mM (last group, c32-c34), t=90 s) was 63947 and 70196 and 70790, the FMP fluorescence reading ([5]; glutamine 0.03mM (last group, c32-c34), t=105 s) was 64771 and 70484 and 71450 and the FMP fluorescence reading ([5]; glutamine 0.1mM, t=60 s) was 88925 and 96285 and 98180. The FMP fluorescence reading ([5]; glutamine 0.1mM, t=75 s) was 90234 and 97546 and 98972, the FMP fluorescence reading ([5]; glutamine 0.1mM, t=90 s) was 91221 and 98690 and 100400 and the FMP fluorescence reading ([5]; glutamine 0.1mM, t=105 s) was 92076 and 98971 and 100952. The FMP fluorescence reading ([5]; glutamine 0.3mM, t=60 s) was 99455 and 107961 and 111369, the FMP fluorescence reading ([5]; glutamine 0.3mM, t=75 s) was 100398 and 109749 and 113586 and the FMP fluorescence reading ([5]; glutamine 0.3mM, t=90 s) was 101543 and 111206 and 114721. For the same compound, the FMP fluorescence reading ([5]; glutamine 0.3mM, t=105 s) was 102418 and 111967 and 115020, the FMP fluorescence reading ([5]; glutamine 1mM, t=60 s) was 112569 and 120148 and 129663 and the FMP fluorescence reading ([5]; glutamine 1mM, t=75 s) was 115039 and 122576 and 131835. For the same compound, the FMP fluorescence reading ([5]; glutamine 1mM, t=90 s) was 116433 and 124735 and 133470, the FMP fluorescence reading ([5]; glutamine 1mM, t=105 s) was 117747 and 125438 and 134724 and the FMP fluorescence reading ([5]; glutamine 1mM, t=120 s) was 118812 and 126597 and 134693. The FMP fluorescence reading ([5]; glutamine 3mM, t=60 s) was 133412 and 124199 and 129325, the FMP fluorescence reading ([5]; glutamine 3mM, t=75 s) was 135706 and 127374 and 131981 and the FMP fluorescence reading ([5]; glutamine 3mM, t=90 s) was 138077 and 129014 and 134980. The FMP fluorescence reading ([5]; glutamine 3mM, t=105 s) was 139888 and 130819 and 136553, the FMP fluorescence reading ([5]; glutamine 3mM, t=120 s) was 140944 and the FMP fluorescence reading ([5]; glutamine 10mM, t=60 s) was 123199 and 132978 and 133617. For the same compound, the FMP fluorescence reading ([5]; glutamine 10mM, t=75 s) was 127611 and 136168 and 137553, the FMP fluorescence reading ([5]; glutamine 10mM, t=90 s) was 130129 and 138788 and 140464 and the FMP fluorescence reading ([5]; glutamine 10mM, t=105 s) was 132559 and 141221 and 142567.
